Test results taken from patent publication US20220096512A1, “WATER-BASED ANTIFUNGAL COMPOSITIONS” (Sigma-Aldrich Co. LLC, priority 2019, published 2022).
In brackets after ≈: the same amount, converted by molar mass.

Columns and labels:
Aspergillus niger = assay: Diffusion disc MIC testing against Aspergillus niger; type: cell-based; conditions: diffusion paper disc, 10 μL applied, incubated overnight at 30° C., average of three experiments
Procedure: (§1) Minimum inhibitory concentration (MIC) testing was determined for the inventive nystatin formulation described herein, along with comparative antifungal agents.
(§2) Nystatin (Solid) and amphotericin were dissolved in DMF in 1 mg/mL. Econazole nitrate was dissolved in PBS to achieve 1 mg/mL. Nystatin formulation diluted with PBS to achieve the same potency as Nystatin (Solid).
(§3) Antibiotic medium 19 was sterilized in autoclave, after sterilization when the temperature lowered to 45° C. and 1 mL from spore suspension was added. 8 mL from this mixture dispensed to each petri dish.
(§4) On each dish 6 sterile diffusion paper disc were placed, 10 μL from each antibiotic were applied in 10, 15, 20, 25, 30, 35 μg/mL concentrations. Where MIC concentrations were below 10, lower concentrations were used: 2, 5, 7.5 μg/mL
(§5) The petri dishes were incubated overnight at 30° C. The MIC were determined as the lower concentration that inhibition could be visualized.

Candida albicans = assay: Diffusion disc MIC testing against Candida albicans; type: cell-based; conditions: diffusion paper disc, 10 μL applied, incubated overnight at 30° C., average of three experiments
Procedure: as §1, §2, §3, §4, §5

Molecule | Inhibition of Aspergillus niger (MIC, lower concentration at which inhibition could be visualized) (Aspergillus niger) | Inhibition of Candida albicans (MIC, lower concentration at which inhibition could be visualized) (Candida albicans) | MIC (Aspergillus niger; Aspergillus niger, read-out: Inhibition of Aspergillus niger (MIC, lower concentration at which inhibition could be visualized)) | Inhibition of Aspergillus niger (MIC, lower concentration at which inhibition could be visualized) (Aspergillus niger; listed as Nystatin methyl ester)
C[C@@H]1[C@H](O)[C@@H](C)/C=C/C=C/CC/C=C/C=C/C=C/C=C/C(O[C@H]2O[C@H](C)[C@@H](O)[C@H](N)[C@@H]2O)CC2O[C@](O)(CC(O)C(O)CCC(O)CC(O)CC(O)CC(=O)O[C@H]1C)CC(O)C2C(=O)O (stereo partly shown) [Nystatin] | 22.5 µg/mL | 14 µg/mL | – | –
Clc1ccc(COC(Cn2ccnc2)c2ccc(Cl)cc2Cl)cc1 (stereo not shown) [Econazole, Econazole nitrate] | No inhibition | No inhibition | – | –
Polymixin B | No inhibition | No inhibition | – | –
C[C@@H]1[C@H](O)[C@@H](C)/C=C/C=C/C=C/C=C/C=C/C=C/C=C/[C@H](O[C@@H]2O[C@H](C)[C@@H](O)[C@H](N)[C@@H]2O)C[C@@H]2O[C@](O)(C[C@@H](O)C[C@@H](O)[C@H](O)CC[C@@H](O)C[C@@H](O)CC(=O)O[C@H]1C)C[C@H](O)[C@H]2C(=O)O [Amphotericin, Amphotericin B] | – | – | 31.5 µg/mL (≈ 34.1 µM) | –
Nystatin Methyl ester | No inhibition | 30 µg/mL | – | no observed inhibition
